From US20260022142A1, “MACROCYCLIC IMMUNOMODULATORS” (Bristol-Myers Squibb Company, priority 2022, published 2026)
Bridge positions count the residues as written; N and C are the ends. Square brackets hold non-standard residues; d marks the D form. Peptide text beside a SMILES is read from it. * marks the point of attachment. ξ: configuration not given here. Bip = N[C@@H](Cc1ccc(-c2ccccc2)cc1)C(=O)O; Phe(3-Me) = Cc1cccc(C[C@H](N)C(=O)O)c1; hArg = N=C(N)NCCCC[C@H](N)C(=O)O; Cha = N[C@@H](CC1CCCCC1)C(=O)O; Cit = NC(=O)NCCC[C@H](N)C(=O)O; aThr = C[C@H](O)[C@H](N)C(=O)O; Thr(3ξ) = CC(O)[C@H](N)C(=O)O; 12Ado = NCCCCCCCCCCCC(=O)O; Carboxymethyl = O=C(O)C*; Orn = NCCC[C@H](N)C(=O)O; Aun = NCCCCCCCCCCC(=O)O; Dab = NCC[C@H](N)C(=O)O; AEEA = NCCOCCOCC(=O)O; Sar = CNCC(=O)O

Each compound was assayed against T1, PD-1/PD-L1 interaction (PE-labeled human PD-L1-Ig binding to Jurkat cell line over-expressing human PD-1) (Homo sapiens, UniProt Q15116) (assay: Jurkat-PD-1 Cell Binding High-Content Screening Assay (CBA)). Settings: Jurkat cell line over-expressing human PD-1; PE-labeled PD-L1-Ig 20 nM final; read-out: Jurkat hPD1-PDL1 IC50.
T1 construct: expressed in transfected cells; host or cells: Jurkat
T1 sequence (Q15116 25-288): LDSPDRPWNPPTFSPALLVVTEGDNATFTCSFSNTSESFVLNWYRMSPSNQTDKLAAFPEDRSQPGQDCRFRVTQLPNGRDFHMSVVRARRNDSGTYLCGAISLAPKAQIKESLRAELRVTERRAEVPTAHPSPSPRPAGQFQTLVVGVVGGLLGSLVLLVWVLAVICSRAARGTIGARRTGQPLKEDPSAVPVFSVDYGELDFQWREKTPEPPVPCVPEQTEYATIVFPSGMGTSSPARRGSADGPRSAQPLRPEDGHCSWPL
Assay type: cell-based
Summary of the method: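 Binding of fluorescent PD-L1-Ig (phycoerythrin on Ig tag, 20 nM final, 1 h) measured by high-content imaging of fixed, Hoechst-counterstained Jurkat-hPD-1 cells. Compound added 2 h at 37° C beforehand, in DMEM with 10% fetal calf serum.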
Work on Cc1cccc(C[C@@H]2NC(=O)[C@H](CC(=O)O)NC(=O)[C@H](Cc3ccc(OCC(=O)O)cc3)NC(=O)[C@H](CCCNC(=N)N)NC(=O)CSC[C@@H](C(=O)N[C@@H](CCN)C(=O)NCCCCCCCCCCC(=O)O)NC(=O)[C@H](C(C)O)NC(=O)[C@H](C(C)C)NC(=O)[C@H](CC3CCCCC3)NC(=O)[C@H](CCN)NC(=O)[C@@H](CC(C)C)NC(=O)[C@H](CCCN)NC(=O)[C@H](CCC(N)=O)NC(=O)[C@H](Cc3ccc(-c4ccccc4)cc3)NC(=O)[C@H](C(C)C)NC2=O)c1 (stereo partly drawn) [Compound 3355] ({CH2CO}-RY(Carboxymethyl)D[Phe(3-Me)]V[Bip]Q[Orn][dL][Dab][Cha]V[Thr(3ξ)]C[Dab][Aun]-OH; thioether N-14) yielded an IC50 of 0.0081 µM. Cc1cccc(C[C@@H]2NC(=O)[C@H](CC(=O)O)NC(=O)[C@H](Cc3ccc(OCC(=O)O)cc3)NC(=O)[C@H](CCCNC(=N)N)NC(=O)CSC[C@@H](C(=O)N[C@@H](CCN)C(=O)NCCCCCCCCCCC(=O)O)NC(=O)[C@H](CCCN)NC(=O)[C@H](C(C)C)NC(=O)[C@H](CC3CCCCC3)NC(=O)[C@H](CCN)NC(=O)[C@@H](CC(C)C)NC(=O)[C@H](CCCN)NC(=O)[C@H](CCC(N)=O)NC(=O)[C@H](Cc3ccc(-c4ccccc4)cc3)NC(=O)[C@H](C(C)C)NC2=O)c1 [Compound 3356] ({CH2CO}-RY(Carboxymethyl)D[Phe(3-Me)]V[Bip]Q[Orn][dL][Dab][Cha]V[Orn]C[Dab][Aun]-OH; thioether N-14) showed an IC50 of 0.0068 µM. Cc1cccc(C[C@@H]2NC(=O)[C@H](CC(=O)O)NC(=O)[C@H](Cc3ccc(OCC(=O)O)cc3)NC(=O)[C@H](CCCCNC(=N)N)NC(=O)CSC[C@@H](C(=O)N[C@@H](CCN)C(=O)NCCCCCCCCCCC(=O)O)NC(=O)[C@H](CCCN)NC(=O)[C@H](C(C)C)NC(=O)[C@H](CC3CCCCC3)NC(=O)[C@H](CCN)NC(=O)[C@@H](CC(C)C)NC(=O)[C@H](CCN)NC(=O)[C@H](CCC(N)=O)NC(=O)[C@H](Cc3ccc(-c4ccccc4)cc3)NC(=O)[C@H](C(C)C)NC2=O)c1 [Compound 3359] ({CH2CO}-[hArg]Y(Carboxymethyl)D[Phe(3-Me)]V[Bip]Q[Dab][dL][Dab][Cha]V[Orn]C[Dab][Aun]-OH; thioether N-14) was tested, and the IC50 was 0.0043 µM. Cc1cccc(C[C@@H]2NC(=O)[C@H](CC(=O)O)NC(=O)[C@H](Cc3ccc(OCC(=O)O)cc3)NC(=O)[C@H](CCCNC(=N)N)NC(=O)CSC[C@@H](C(=O)N[C@@H](CCN)C(=O)NCCCCCCCCCCC(=O)O)NC(=O)[C@H](CCCNC(N)=O)NC(=O)[C@H](C(C)C)NC(=O)[C@H](CC3CCCCC3)NC(=O)[C@H](CCN)NC(=O)[C@@H](CC(C)C)NC(=O)[C@H](CCN)NC(=O)[C@H](C(C)C)NC(=O)[C@H](Cc3ccc(-c4ccccc4)cc3)NC(=O)[C@H](C(C)C)NC2=O)c1 [Compound 3360] ({CH2CO}-RY(Carboxymethyl)D[Phe(3-Me)]V[Bip]V[Dab][dL][Dab][Cha]V[Cit]C[Dab][Aun]-OH; thioether N-14) showed an IC50 of 0.0081 µM. Work on CC(C)C[C@H]1NC(=O)[C@H](CCCN)NC(=O)[C@H](C(C)C)NC(=O)[C@H](Cc2ccc(-c3ccccc3)cc2)NC(=O)[C@H](C(C)C)NC(=O)[C@H](Cc2c[nH]c3ccccc23)NC(=O)[C@H](CC(=O)O)NC(=O)[C@H](Cc2ccc(OCC(=O)O)cc2)NC(=O)[C@H](CCCCNC(=N)N)NC(=O)CSC[C@@H](C(=O)N(C)CC(=O)NCCOCCOCC(=O)N[C@@H](CCCN)C(=O)NCCCCCCCCCCCC(=O)O)NC(=O)[C@H](CO)NC(=O)[C@H](C(C)C)NC(=O)[C@H](CC2CCCCC2)NC(=O)[C@H](CCN)NC1=O [Compound 3361] ({CH2CO}-[hArg]Y(Carboxymethyl)DWV[Bip]V[Orn][dL][Dab][Cha]VSC[Sar][AEEA][Orn][12Ado]-OH; thioether N-14) yielded an IC50 of 0.0187 µM. For Cc1cccc(C[C@@H]2NC(=O)[C@H](CC(=O)O)NC(=O)[C@H](Cc3ccc(OCC(=O)O)cc3)NC(=O)[C@H](CCCNC(=N)N)NC(=O)CSC[C@@H](C(=O)N[C@@H](CCN)C(=O)NCCCCCCCCCCC(=O)O)NC(=O)[C@H](C(C)O)NC(=O)[C@H](C(C)C)NC(=O)[C@H](CC3CCCCC3)NC(=O)[C@H](CCN)NC(=O)[C@@H](CC(C)C)NC(=O)[C@H](CCC(N)=O)NC(=O)[C@H](Cc3ccc(O)cc3)NC(=O)[C@H](Cc3ccc(-c4ccccc4)cc3)NC(=O)[C@H](Cc3ccc(O)cc3)NC2=O)c1 (stereo partly drawn) [Compound 3370] ({CH2CO}-RY(Carboxymethyl)D[Phe(3-Me)]Y[Bip]YQ[dL][Dab][Cha]V[Thr(3ξ)]C[Dab][Aun]-OH; thioether N-14), the IC50 was 0.0126 µM. Compound Cc1cccc(C[C@@H]2NC(=O)[C@H](CC(=O)O)NC(=O)[C@H](Cc3ccc(OCC(=O)O)cc3)NC(=O)[C@H](CCCNC(=N)N)NC(=O)CSC[C@@H](C(=O)N[C@@H](CCN)C(=O)NCCCCCCCCCCC(=O)O)NC(=O)[C@H](C(C)O)NC(=O)[C@H](C(C)C)NC(=O)[C@H](CC3CCCCC3)NC(=O)[C@H](CCN)NC(=O)[C@@H](CC(C)C)NC(=O)[C@H](CCCNC(N)=O)NC(=O)[C@H](Cc3ccc(OCC(=O)O)cc3)NC(=O)[C@H](Cc3ccc(-c4ccccc4)cc3)NC(=O)[C@H](Cc3ccc(O)cc3)NC2=O)c1 (stereo partly drawn) [Compound 3371] ({CH2CO}-RY(Carboxymethyl)D[Phe(3-Me)]Y[Bip]Y(Carboxymethyl)[Cit][dL][Dab][Cha]V[Thr(3ξ)]C[Dab][Aun]-OH; thioether N-14) has an IC50 of 0.0094 µM. In the case of Cc1cccc(C[C@@H]2NC(=O)[C@H](CC(=O)O)NC(=O)[C@H](Cc3ccc(OCC(=O)O)cc3)NC(=O)[C@H](CCCNC(=N)N)NC(=O)CSC[C@@H](C(=O)N[C@@H](CCN)C(=O)NCCCCCCCCCCC(=O)O)NC(=O)[C@H](CCCNC(N)=O)NC(=O)[C@H](C(C)C)NC(=O)[C@H](CC3CCCCC3)NC(=O)[C@H](CCN)NC(=O)[C@@H](CC(C)C)NC(=O)[C@H](CCC(N)=O)NC(=O)[C@H](Cc3ccc(OCC(=O)O)cc3)NC(=O)[C@H](Cc3ccc(-c4ccccc4)cc3)NC(=O)[C@H](CC(C)C)NC2=O)c1 [Compound 3372] ({CH2CO}-RY(Carboxymethyl)D[Phe(3-Me)]L[Bip]Y(Carboxymethyl)Q[dL][Dab][Cha]V[Cit]C[Dab][Aun]-OH; thioether N-14), the IC50 is reported as 0.0116 µM. Work on Cc1cccc(C[C@@H]2NC(=O)[C@H](CC(=O)O)NC(=O)[C@H](Cc3ccc(OCC(=O)O)cc3)NC(=O)[C@H](CCCNC(=N)N)NC(=O)CSC[C@@H](C(=O)N[C@@H](CCN)C(=O)NCCCCCCCCCCC(=O)O)NC(=O)[C@H](C(C)O)NC(=O)[C@H](C(C)C)NC(=O)[C@H](CC3CCCCC3)NC(=O)[C@H](CCN)NC(=O)[C@@H](CC(C)C)NC(=O)[C@H](CCC(=O)O)NC(=O)[C@H](Cc3ccc(O)cc3)NC(=O)[C@H](Cc3ccc(-c4ccccc4)cc3)NC(=O)[C@H](Cc3ccc(O)cc3)NC2=O)c1 (stereo partly drawn) [Compound 3373] ({CH2CO}-RY(Carboxymethyl)D[Phe(3-Me)]Y[Bip]YE[dL][Dab][Cha]V[Thr(3ξ)]C[Dab][Aun]-OH; thioether N-14) yielded an IC50 of 0.0274 µM. Cc1cccc(C[C@@H]2NC(=O)[C@H](CC(=O)O)NC(=O)[C@H](Cc3ccc(OCC(=O)O)cc3)NC(=O)[C@H](CC(N)=O)NC(=O)CSC[C@@H](C(=O)N[C@@H](CCN)C(=O)NCCCCCCCCCCC(=O)O)NC(=O)[C@H](C(C)O)NC(=O)[C@H](C(C)C)NC(=O)[C@H](CC3CCCCC3)NC(=O)[C@H](CCN)NC(=O)[C@@H](CC(C)C)NC(=O)[C@H](CCN)NC(=O)[C@H](Cc3ccc(O)cc3)NC(=O)[C@H](Cc3ccc(-c4ccccc4)cc3)NC(=O)[C@H](CC(C)C)NC2=O)c1 (stereo partly drawn) [Compound 3374] ({CH2CO}-NY(Carboxymethyl)D[Phe(3-Me)]L[Bip]Y[Dab][dL][Dab][Cha]V[Thr(3ξ)]C[Dab][Aun]-OH; thioether N-14) was tested, and the IC50 was 0.0316 µM. For Cc1cccc(C[C@@H]2NC(=O)[C@H](CC(=O)O)NC(=O)[C@H](Cc3ccc(OCC(=O)O)cc3)NC(=O)[C@H](CC(N)=O)NC(=O)CSC[C@@H](C(=O)NCCCCCCCCCCC(=O)O)NC(=O)[C@H](CCC(=O)O)NC(=O)[C@H](C(C)C)NC(=O)[C@H](CC3CCCCC3)NC(=O)[C@H](CCN)NC(=O)[C@@H](CC(C)C)NC(=O)[C@H](CCCN)NC(=O)[C@H](Cc3ccc(O)cc3)NC(=O)[C@H](Cc3ccc(-c4ccccc4)cc3)NC(=O)[C@H](C(C)C)NC2=O)c1 [Compound 3375] ({CH2CO}-NY(Carboxymethyl)D[Phe(3-Me)]V[Bip]Y[Orn][dL][Dab][Cha]VEC[Aun]-OH; thioether N-14), the IC50 was 0.0123 µM. In the case of Cc1cccc(C[C@@H]2NC(=O)[C@H](CC(=O)O)NC(=O)[C@H](Cc3ccc(OCC(=O)O)cc3)NC(=O)[C@H](CC(N)=O)NC(=O)CSC[C@@H](C(=O)N[C@@H](CCC(=O)O)C(=O)NCCCCCCCCCCC(=O)O)NC(=O)[C@H]([C@H](C)O)NC(=O)[C@H](C(C)C)NC(=O)[C@H](CC3CCCCC3)NC(=O)[C@H](CCN)NC(=O)[C@@H](CC(C)C)NC(=O)[C@H](CCCN)NC(=O)[C@H](Cc3ccc(O)cc3)NC(=O)[C@H](Cc3ccc(-c4ccccc4)cc3)NC(=O)[C@H](C(C)C)NC2=O)c1 [Compound 3376] ({CH2CO}-NY(Carboxymethyl)D[Phe(3-Me)]V[Bip]Y[Orn][dL][Dab][Cha]V[aThr]CE[Aun]-OH; thioether N-14), the IC50 is reported as 0.0148 µM. Cc1cccc(C[C@@H]2NC(=O)[C@H](CC(=O)O)NC(=O)[C@H](Cc3ccc(OCC(=O)O)cc3)NC(=O)[C@H](CC(N)=O)NC(=O)CSC[C@@H](C(=O)N[C@@H](CCN)C(=O)NCCCCCCCCCCC(=O)O)NC(=O)[C@H]([C@H](C)O)NC(=O)[C@H](C(C)C)NC(=O)[C@H](CC3CCCCC3)NC(=O)[C@H](CCN)NC(=O)[C@@H](CC(C)C)NC(=O)[C@H](CCCN)NC(=O)[C@H](Cc3ccc(O)cc3)NC(=O)[C@H](Cc3ccc(-c4ccccc4)cc3)NC(=O)[C@H](C(C)C)NC2=O)c1 [Compound 3377] ({CH2CO}-NY(Carboxymethyl)D[Phe(3-Me)]V[Bip]Y[Orn][dL][Dab][Cha]V[aThr]C[Dab][Aun]-OH; thioether N-14) was tested, and the IC50 was 0.0135 µM.
